From article PMC6452685, “Lysyl-tRNA synthetase as a drug target in malaria and cryptosporidiosis” (Proceedings of the National Academy of Sciences of the …, 2019) come the findings set out here.

Like-named read-outs stand apart in the source and are kept apart here.

Data set [1] can be described thus: Intrinsic clearance in mouse liver microsomes. In kind it is in vitro ADME. As to the method: 4.4 Int r ins ic C le ar ance (CLi) experiments […]
HUE50H ). The procedure was carried out as reported prev i ous l y (15). […] Immediately, at time zero, then at 3, 6, 9, 15 and 30 min an aliquot ( 50 μl) o f the i ncubati on mi x ture was remov ed and mi x ed with acetonitrile (100 μl) contai ni ng i nternal s tandard to stop the reaction. […] XLfi t software (I DBS, Guildford UK) was used to cal cul ate the exponenti al decay and consequentl y the rate cons tant (ke-1) from the rati o of peak area of tes t compou nd to i nternal s tandard at each ti me poi nt .
The rate o f i ntri nsi c cl earance (CLi ) of each test compoun d was then cal cul ated usi ng the f ol l owi ng […]
CLi (ml /mi n/g li ver) = ke-1 x V x Microsomal protein yield […]
where V (ml/mg protein) is the incubation volume/mg protein added (0.5) and microsomal protein yield is taken as being 52.5 mg protein per g liver. Verapami l (0. 5 µ M ) w as us ed as a pos i t i v e cont rol to confirm ac ceptable assay performance. […]
Cryopreserved mouse (batch MC539) and huma n (batch HU E50H) hepatocytes were supplied by ThermoFi sher Sci enti fi c, Pai sl ey, UK and Xenotech, LLC, respectively. Cryopreserved hepatocytes were rapidly thawed in a pre-heat ed w at er bat h at 37 °C before ad di ng to 50 ml of pre-warmed CHRM medi a (ThermoFi sher Sci enti fi c, Paisley, UK) and mi xed gentl y. […] […] 5 mi l li on v i abl e cel l s /ml i n s uppl emented W ME. Onl y s us pens i ons whi ch ac hi ev ed >80% pos t-thaw viability were us ed i n ex peri ment s . […]
DMSO and 0.25 million cells/ml. […]
A general note: Liver microsomes are a subcellular fraction often used to study metabolism.

For data set [2], the system named is Nanoluciferase-expressing C. parvum. Kind of data set: Inhibition of Nanoluciferase expressing C. parvum growth in HCT-8 cells. In kind it is cell-based, Cryptosporidium parvum. Conditions: read-out: Nluc Cp EC50. The protocol: […] ( UW ) Inhibition of C. parvum growth and EC50 det erm i nat i ons w ere perf ormed w i t h a Na nol uci feras e-expressing C. parvum parasi t e i n HC T-8 cel l s. Oocys ts were propag ated i n cal v es (Cryptosporidium Producti on La borato ry, School o f Ani mal and Comparati ve Bi omedi cal Sci ences, Universi ty of Ari zona) and i sol ated from stool s by sucrose suspensi on and cesi um chl ori de gradi ent. HCT-8 cel ls were seeded to a 384-well plate and allowed to grow for 72 h to reach 90-100% confluence at 37 °C in 5% CO2. Oocysts were activated by 10-15 mi n i ncubat i on i n 10% bl each (0. 6% s odi um hy pochl o ri t e) at room temperature and then washed wi th DPBS. 2000 oocysts per wel l were appl ied to 384-well pl at es wi t h RPM I-1640 medi um s up pl ement ed w i th 10% ho rs e s erum and 1% pe ni ci l li n/s t rept omy ci n at the same time as compound addition. The compound and the oocysts were left in place for the full 72 h g row t h t i me. The amount of l uci feras e-induced light emission was determined by lysing the cell monol ayer, addi ng Nan o-Glo® luciferase reagent (Promega, Madison, W I , USA), and readi ng o n a n EnVi s i on M ul t il abe l Pl at e Re ade r (P e rk i n El me r, Wal t ham, M A, USA). C ont rol s i ncl ude d i nfe ct e d w e lls with no addition of inhibitors and the background was taken as wells where no C. parvum was adde d.
The per cent ag e of g row t h versus infected ce lls with no inhibitor was calculated for each concentrati on of BKI an d the hal f maxi mal effecti ve concentrati on (EC50) v al ues were determi ned by a si gmoi dal dose response wi th vari abl e sl ope usi ng GraphPad Pri sm versi on 6.07 (GraphPa d Software, La Jol l a, Cal i forni a, USA). […]

In a further data set the test system is HepG2 cells. Nature of the data set: HepG2 cytotoxicity. In kind it is cell-based. The note with it: Homo sapiens. From the text: 3.2 Cytotoxicity Studies (Dundee)
In vi t ro cy totox i ci ty s tudies can be ca rri ed out us i ng Hep G 2 (Human C aucas i an hepatocy te ca rci noma, ECACC cat. no. 850 114 30) us ed as i ndi cators f or g eneral mammal i an cel l tox i ci ty . […]
3.3 In vitro Cell Assay D ata Analysis (Du ndee) […]
as 0%. Qual i ty control c ri teri a for passi ng pl ates were as fol l ow s : Z’ > 0.
< 15 . T he f ormula used to calculate Z’ is 1- 3´ (St D e v _ hi gh + St D e v_ low) . […]
Al l EC50 Curve fitti ng was undertaken usi ng XLFi t versi on 4.2 usi ng Model 205 wi th the foll owi ng 4 paramet ri c equat i on: A + (?-A) ,where A=% i nhi bi ti on at bo ttom, B=% i nhi bi ti on at top, C= EC , […]
D= slope, x= inhibitor concentration a nd y= % inhibition. […]
was fixed to 100 only when at least 50% of inhibition was reached. […]

Setting [3] is: Cryptosporidium parvum, HCT-8, C. parvum growth in HCT-8 cells.

As to `O=C(NCC1(O)CCC(F)(F)CC1)c1cc(=O)c2cc(F)ccc2o1` [Compound 5], in data set [1], the “MLM CLi” value was determined as 1 mL/min/g. The “Microsomal stability CLint” value in data set [1] came out at 1 mL⋅min^−1⋅g^−1. Moreover, the concentration for a half-maximal effect (EC50) in data set [2] (setting [3]) turned out to be 2500 nM; in the data set on HepG2 cells, 49000 nM.

As for `O=C(NCC1(O)CCCCC1)c1cc(=O)c2cc(F)ccc2o1` [Compound 4], in data set [1], the “MLM CLi” value was 3 mL/min/g. Also, the 50% effective concentration (EC50) in data set [2] (setting [3]) came to 140 nM; with HepG2 cells, 32000 nM.

Take `O=C(NCC1CCCCC1)c1cc(=O)c2cc(F)ccc2o1` [Compound 3]: in data set [1], the “MLM CLi” value came out at 23 mL/min/g. For the same molecule, the concentration giving a half-maximal response (EC50) is 810 nM in data set [2] (setting [3]) and more than 50000 nM with HepG2 cells.

Turning to `C[C@H]1CCC[C@H](C[C@H]2Cc3cc(O)cc(O)c3C(=O)O2)O1` [Compound 1, cladosporin, reference compound], in data set [1], the “MLM CLi” value turned out to be 20 mL/min/g. Also, the figures for the EC50 (in data set [2] (C. parvum growth in HCT-8 cells); in data set [2] (setting [3]); with HepG2 cells) were 670 nM, 700 nM and more than 50000 nM, respectively.

Regarding `O=C(NCC1CCCCC1)c1cc(=O)c2ccccc2o1` [Compound 2], the “MLM CLi” value in data set [1] was more than 50 mL/min/g. The “Microsomal stability CLint” value in data set [1] was more than 50 mL⋅min^−1⋅g^−1. For the same molecule, the concentration for a half-maximal effect (EC50) in data set [2] (setting [3]) was 1200 nM; with HepG2 cells it was more than 50000 nM.

A word on the EC50: it is the concentration that produces a half-maximal response.
